# Reference: patent publication US20230146455A1, “TREATMENT OF INFLAMMATORY DISEASES WITH PEPTIDES AND PHARMACEUTICAL COMPOSITIONS” (Yuyu Pharma, Inc., priority 2020, published 2023)
# Several values for one entry are separate records, joined by “and”; a condition that tells them apart may be missing. Identical values can stand only once. Where a SMILES comes first, the peptide text is derived from it. [ ]: non-standard residue; d: D form. Hyp = O=C(O)[C@@H]1C[C@@H](O)CN1
# System: IL-2
# Experiment: Example 9 Luminex, LPS hPBMCs: IL-2
# Type: cell-based, human
# Conditions: for IL-2 Concentration: dilution 2.0
# Protocol: Treatment Human PBMCs were pretreated with YY-101, YDE-011 and YDE-043 or reference compound; Xiidra® at various concentration (ranging from 1 nM to 100 uM) for 2 h before stimulation. An equal volume of 0.5% DMSO was used as a vehicle control. Then, the cells were treated with LPS at 5 ug/ml. The supernatants from treated cells were harvested at 24 h and placed in a 96 well for Luminex cytokine & chemokine profiling using a Luminex 200 multiplex assay (Luminex; R&D system, USA).
# The main study arm with triplicate wells per group in a 24-well plate: • 1. Blank • 2. PBMC: 0.5% DMSO • 3. PBMC+LPS (5 ug/ml) • 4. PBMC+YY-101 100 uM • 5. PBMC+YY-101 10 uM • 6. PBMC+YY-101 1 uM • 7. PBMC+YY-101 0.1 uM • 8. PBMC+YY-101 0.01 uM • 9. PBMC+LPS (5 ug/ml)+Xiidra®100 uM • 10. PBMC+LPS (5 ug/ml)+Xiidra® 10 uM • 11. PBMC+LPS (5 ug/ml)+Xiidra® 1 uM • 12. PBMC+LPS (5 ug/ml)+Xiidra®0.1 uM • 13. PBMC+LPS (5 ug/ml)+Xiidra®0.01 uM • 14. PBMC+LPS (5 ug/ml)+Xiidra®0.001 uM • 15. PBMC+LPS (5 ug/ml)+YY-101 100 uM • 16. PBMC+LPS (5 ug/ml)+YY-101 10 uM • 17. PBMC+LPS (5 ug/ml)+YY-101 1 uM • 18. PBMC+LPS (5 ug/ml)+YY-101 0.1 uM • 19. PBMC+LPS (5 ug/ml)+YY-101 0.01 uM • 20. PBMC+LPS (5 ug/ml)+YY-101 0.001 uM • 21. PBMC+LPS (5 ug/ml)+YDE-011 100 uM • 22. PBMC+LPS (5 ug/ml)+YDE-011 10 uM • 23. PBMC+LPS (5 ug/ml)+YDE-011 1 uM • 24. PBMC+LPS (5 ug/ml)+YDE-011 0.1 uM • 25. PBMC+LPS (5 ug/ml)+YDE-011 0.01 uM • 26. PBMC+LPS (5 ug/ml)+YDE-011 0.001 uM • 27. PBMC+LPS (5 ug/ml)+YDE-043 100 uM • 28. PBMC+LPS (5 ug/ml)+YDE-043 10 uM • 29. PBMC+LPS (5 ug/ml)+YDE-043 1 uM • 30. PBMC+LPS (5 ug/ml)+YDE-043 0.1 uM • 31. PBMC+LPS (5 ug/ml)+YDE-043 0.01 uM • 32. PBMC+LPS (5 ug/ml)+YDE-043 0.001 uM
# Multiplex assay was used to measure 30 cytokines and chemokines. The 1:2, 1:10 and 1:200 diluted cell supernatant and serial dilution of the standard were dispensed into a 96 well plate at 50 ul/well. Then, the pre-mixed cocktail of antibody-coated magnetic beads was dispensed at 50 ul/well and incubated at room temperature for 2 h in a horizontal orbital microplate shaker at 800±500 rpm. The beads were washed using a magnetic device to prevent loss. The biotin-antibody was dispensed in 50 ul of each well and incubated at room temperature for 1 h in a shaker at 800±500 rpm. After washing, streptavidin-PE was added at 50 ul/well and incubated at room temperature for 30 min in a shaker under the same conditions. Finally, after washing, wash buffer (100 ul/well) was added to the plate and incubated in a shaker for 2 min. The Luminex™ 200 setting were set according to the manufacturer's protocol. The data was calculated with a standard five-parameter logistic nonlinear regression analysis of the data (xPonent software 4.2, USA). The levels of cytokine/chemokine are normalized to the live cell counts (1×10^5 cells/mL) and presented as concentrations per mL (pg/mL or ng/mL).
# [1] = PBMC + LPS(5 ug/ml) + test article 0.001 uM, Mean
# [2] = PBMC + LPS(5 ug/ml) + test article 0.001 uM, single replicates
# [3] = PBMC + LPS(5 ug/ml) + test article 0.01 uM, Mean
# [4] = PBMC + LPS(5 ug/ml) + test article 0.01 uM, single replicates
# [5] = PBMC + LPS(5 ug/ml) + test article 0.1 uM, Mean
# [6] = PBMC + LPS(5 ug/ml) + test article 0.1 uM, single replicates
# [7] = PBMC + LPS(5 ug/ml) + test article 1 uM, Mean
# [8] = PBMC + LPS(5 ug/ml) + test article 1 uM, single replicates
# [9] = PBMC + LPS(5 ug/ml) + test article 10 uM, Mean
# [10] = PBMC + LPS(5 ug/ml) + test article 10 uM, single replicates
# [11] = PBMC + LPS(5 ug/ml) + test article 100 uM, Mean
# [12] = PBMC + LPS(5 ug/ml) + test article 100 uM, single replicates
# [13] = PBMC + test article 0.01 uM, no LPS, Mean
# [14] = PBMC + test article 0.01 uM, no LPS, single replicates
# [15] = PBMC + test article 0.1 uM, no LPS, Mean
# [16] = PBMC + test article 0.1 uM, no LPS, single replicates
# [17] = PBMC + test article 1 uM, no LPS, Mean
# [18] = PBMC + test article 1 uM, no LPS, single replicates
# [19] = PBMC + test article 10 uM, no LPS, Mean
# [20] = PBMC + test article 10 uM, no LPS, single replicates
# [21] = PBMC + test article 100 uM, no LPS, Mean
# [22] = PBMC + test article 100 uM, no LPS, single replicates
smiles,measurement,setting,value
CC(C)C[C@H](NC(=O)CNC(=O)[C@H](CC(=O)O)NC(=O)[C@H](CCC(N)=O)NC(=O)CNC(=O)[C@@H]1C[C@@H](O)CN1)C(=O)N[C@@H](C)C(=O)NCC(=O)N1CCC[C@H]1C(=O)N[C@@H](CCCCN)C(=O)O [YY-101] (H-[Hyp]GQDGLAGPK-OH; N-terminus and C-terminus assumed),IL-2 conc/live cell,[1],0.9 pg/10^5
same,"MFI, Bead name: IL-2",[1],16.3
same,IL-2 Concentration,[1],5.7 pg/mL
same,IL-2 Concentration,[2],3.4 pg/mL and 7.6 pg/mL and 6.2 pg/mL
same,IL-2 conc/live cell,[2],0.6 pg/10^5 and 1.1 pg/10^5 and 0.9 pg/10^5
same,"MFI, Bead name: IL-2",[2],13.0 and 19.0 and 17.0
same,IL-2 conc/live cell,[3],1.4 pg/10^5
same,"MFI, Bead name: IL-2",[3],20.3
same,IL-2 Concentration,[3],8.6 pg/mL
same,IL-2 Concentration,[4],6.9 pg/ml (2×) and 11.8 pg/ml
same,IL-2 conc/live cell,[4],1.1 pg/10^5 (2×) and 2.0 pg/10^5
same,"MFI, Bead name: IL-2",[4],18.0 (2×) and 25.0
same,IL-2 conc/live cell,[5],0.0 pg/10^5
same,"MFI, Bead name: IL-2",[5],6.3
same,IL-2 conc/live cell,[6],0.0 pg/10^5
same,"MFI, Bead name: IL-2",[6],8.0 (2×) and 3.0
same,IL-2 conc/live cell,[7],0.6 pg/10^5
same,"MFI, Bead name: IL-2",[7],13.7
same,IL-2 Concentration,[7],3.8 pg/mL
same,IL-2 Concentration,[8],5.2 pg/mL and 3.7 pg/mL and 2.6 pg/mL
same,IL-2 conc/live cell,[8],0.8 pg/10^5 and 0.5 pg/10^5 and 0.4 pg/10^5
same,"MFI, Bead name: IL-2",[8],15.5 and 13.5 and 12.0
same,IL-2 conc/live cell,[9],0.8 pg/10^5
same,"MFI, Bead name: IL-2",[9],15.7
same,IL-2 Concentration,[9],5.3 pg/mL
same,IL-2 Concentration,[10],8.0 pg/mL and 4.1 pg/mL and 3.7 pg/mL
same,IL-2 conc/live cell,[10],1.3 pg/10^5 and 0.6 pg/10^5 and 0.5 pg/10^5
same,"MFI, Bead name: IL-2",[10],19.5 and 14.0 and 13.5
same,IL-2 conc/live cell,[11],0.1 pg/10^5
same,"MFI, Bead name: IL-2",[11],9.0
same,IL-2 Concentration,[11],1.1 pg/mL
same,IL-2 Concentration,[12],1.9 pg/mL and 0.4 pg/mL
same,IL-2 conc/live cell,[12],0.3 pg/10^5 and 0.1 pg/10^5 and 0.0 pg/10^5
same,"MFI, Bead name: IL-2",[12],11.0 and 9.0 and 7.0
same,IL-2 conc/live cell,[13],11.5 pg/10^5
same,"MFI, Bead name: IL-2",[13],93.3
same,IL-2 Concentration,[13],57.4 pg/mL
same,IL-2 Concentration,[14],56.9 pg/mL and 57.9 pg/mL
same,IL-2 conc/live cell,[14],10.9 pg/10^5 and 12.1 pg/10^5
same,"MFI, Bead name: IL-2",[14],92.5 and 94.0
same,IL-2 conc/live cell,[15],11.5 pg/10^5
same,"MFI, Bead name: IL-2",[15],96.3
same,IL-2 Concentration,[15],59.3 pg/mL
same,IL-2 Concentration,[16],45.4 pg/mL and 73.2 pg/mL
same,IL-2 conc/live cell,[16],10.3 pg/10^5 and 12.6 pg/10^5
same,"MFI, Bead name: IL-2",[16],75.0 and 117.5
same,IL-2 conc/live cell,[17],11.4 pg/10^5
same,"MFI, Bead name: IL-2",[17],101.5
same,IL-2 Concentration,[17],62.8 pg/mL
same,IL-2 Concentration,[18],59.8 pg/mL and 65.7 pg/mL
same,IL-2 conc/live cell,[18],10.9 pg/10^5 and 11.9 pg/10^5
same,"MFI, Bead name: IL-2",[18],97.0 and 106.0
same,IL-2 conc/live cell,[19],11.3 pg/10^5
same,"MFI, Bead name: IL-2",[19],113.5
same,IL-2 Concentration,[19],70.6 pg/mL
same,IL-2 Concentration,[20],69.6 pg/mL and 71.5 pg/mL
same,IL-2 conc/live cell,[20],10.9 pg/10^5 and 11.7 pg/10^5
same,"MFI, Bead name: IL-2",[20],112.0 and 115.0
same,IL-2 conc/live cell,[21],2.2 pg/10^5
same,"MFI, Bead name: IL-2",[21],29.0
same,IL-2 Concentration,[21],14.6 pg/mL
same,IL-2 Concentration,[22],13.2 pg/mL and 16.0 pg/mL
same,IL-2 conc/live cell,[22],2.1 pg/10^5 and 2.3 pg/10^5
same,"MFI, Bead name: IL-2",[22],27.0 and 31.0
CC(C)C[C@H](NC(=O)CNC(=O)[C@H](CC(C)C)NC(=O)[C@H](CCC(N)=O)NC(=O)CNC(=O)[C@@H]1C[C@@H](O)CN1)C(=O)N[C@@H](C)C(=O)NCC(=O)N1CCC[C@H]1C(=O)N[C@@H](CCCCN)C(=O)O [YDE-011] (H-[Hyp]GQLGLAGPK-OH),IL-2 conc/live cell,[1],0.0 pg/10^5
same,"MFI, Bead name: IL-2",[1],4.0
same,IL-2 conc/live cell,[2],0.0 pg/10^5
same,"MFI, Bead name: IL-2",[2],4.0
same,IL-2 conc/live cell,[3],0.0 pg/10^5
same,"MFI, Bead name: IL-2",[3],5.0
same,IL-2 conc/live cell,[4],0.0 pg/10^5
same,"MFI, Bead name: IL-2",[4],5.0
same,IL-2 conc/live cell,[5],0.0 pg/10^5
same,"MFI, Bead name: IL-2",[5],6.7
same,IL-2 conc/live cell,[6],0.0 pg/10^5
same,"MFI, Bead name: IL-2",[6],7.0 and 8.0 and 5.0
same,IL-2 conc/live cell,[7],0.0 pg/10^5
same,"MFI, Bead name: IL-2",[7],5.3
same,IL-2 conc/live cell,[8],0.0 pg/10^5
same,"MFI, Bead name: IL-2",[8],6.0 (2×) and 4.0
same,IL-2 conc/live cell,[9],0.0 pg/10^5
same,"MFI, Bead name: IL-2",[9],5.3
same,IL-2 conc/live cell,[10],0.0 pg/10^5
same,"MFI, Bead name: IL-2",[10],6.0 and 5.0 (2×)
same,IL-2 conc/live cell,[11],0.0 pg/10^5
same,"MFI, Bead name: IL-2",[11],4.0
same,IL-2 conc/live cell,[12],0.0 pg/10^5
same,"MFI, Bead name: IL-2",[12],4.0 and 2.0 and 6.0
